Legend:
[1] = tested on: HPV-specific T cells from HNC patients; assay: HPV T-cell epitope mapping by intracellular cytokine staining (ICS); format: cell-based, human; details: for T cell specificity: epitopes mapped in HNC patient T cells, Table 1; for epitope identified by fine-mapping: FIG. 5 and FIG. 6
Experimental: (§1) Peripheral blood mononuclear cells (PBMCs) from HNC patients were isolated and stimulated with HPV antigen pepmix peptide pools for either HPV16 or HPV18 in separate cultures and prepared for the intracellular cytokine staining (ICS) assay, as described above (non-stimulated controls were run in parallel). T cell response to the pepmix peptide pools was analyzed to identify individual peptides. These individual peptides were further assessed for T cell expansion and ICS analysis to identify potential epitopes. Once the 15mer peptide was identified, further mimimalization of the epitope sequence was carried out to identify the optimal T cell epitope sequence. The 15mer peptide sequences were trimmed from both N- and C-terminus to a minimal of 9-14 amino acid long peptides. Once the minimal peptide sequence was identified, further confirmation was carried out using limiting dose titration ICS assay. After mapping minimal epitope sequence, the HLA restriction of the epitope was identified by stimulating T cells using peptide loaded HLA-matched and mismatched PHA blasts (PHA).
Representative data showing that HPV-specific T cells from HNC patients recognized HPV16-E6, HPV18-E6 antigens can be found in FIGS. 1 and 2, respectively. In order to map the T cell epitope, further analysis was carried out using sub pools of E6 peptides. […] When analyzed on an HPV peptide matrix layout, the common peptide sequence among the responding pools was identified.

[2] = tested on: HPV-specific T cells / HLA-matched and mismatched PHA blasts; assay: HLA restriction mapping with peptide loaded HLA-matched and mismatched PHA blasts; format: cell-based, human; details: epitopes mapped in HNC patient T cells, Table 1
Experimental: as §1

Sequence	T cell specificity [1]	HLA restriction [2]	epitope identified by fine-mapping [1]
AFRDLCIVY (listed as Human papillomavirus)	CD8^+	–	–
DRAHYNIVTF (listed as Human papillomavirus)	CD8^+	–	–
EKQRHLDKKQRFHNIRGRWTGRCMSCC (listed as Human papillomavirus)	CD4^+	DRB115:01	–
FELSQMVQW (listed as Human papillomavirus)	CD8^+	–	–
FRDLCIVYR (listed as Human papillomavirus)	CD8^+	–	–
GRWTGRCMSC (listed as Human papillomavirus)	CD8^+	–	–
HDIILECVY (listed as Human papillomavirus)	CD8^+	–	–
HIDYWKHMRLECALY (listed as Human papillomavirus)	CD4^+	DQB1*03:01	–
IRCINCQKPL (listed as Human papillomavirus)	CD8^+	–	–
KLPQLCTEL (listed as Human papillomavirus)	CD8^+	–	–
KQRFHNIRGRWTGRC	–	–	fine CD4 epitope-mapping of HPV16-E6 pools identified
LEDLLMGTLGI (listed as Human papillomavirus)	CD8^+	–	–
LLMGTLGIV	CD8^+	–	–
LQDVSLEVYL (listed as Human papillomavirus)	CD8^+	–	–
NLDTASTTL (listed as Human papillomavirus)	CD8^+	–	–
RCINCQKPLCPEEKQRHLD (listed as Human papillomavirus)	CD4^+	DRB115:01	–
RPFKSNKST (listed as Human papillomavirus)	CD8^+	–	–

Sequence	T cell specificity [1]	HLA restriction [2]	epitope identified by fine-mapping [1]
SAFRCFIVY (listed as Human papillomavirus)	CD8^+	–	–
SEIAYKYAQ (listed as Human papillomavirus)	CD8^+	–	–
SPATAFTVY (listed as Human papillomavirus)	CD8^+	–	–
SVDSAPILTAFNSSH (listed as Human papillomavirus)	CD4^+	DQB1*03:01	–
TIHDIILECV (listed as Human papillomavirus)	CD8^+	–	–
TLLQQYCLYL	CD8^+	–	–
TLQDVSLEVYL (listed as Human papillomavirus)	CD8^+	–	–
TPTLHEYMLDLQPETTDLY (listed as Human papillomavirus)	CD4^+	DQB1*03:01	–
TVLELTEVFEF (listed as Human papillomavirus)	CD8^+	–	–
TVLELTEVFEFA (listed as Human papillomavirus)	CD8^+	–	HPV18-E6 CD^+ T cell epitope
VQSTHVDIRTLEDLLMGTL (listed as Human papillomavirus)	CD4^+	DQB1*03:01	–
VWEVHAGGQVI (listed as Human papillomavirus)	CD8^+	–	–
VYDYAFRDLCIVYRDGNPYAVCD (listed as Human papillomavirus)	CD4^+	DRB115:01	–
WKSFFSRTWSRLSLH (listed as Human papillomavirus)	CD4^+	DRB1*04:01	–
WPTTPPRPI (listed as Human papillomavirus)	CD8^+	–	–
YEQLNDSSEEEDEID (listed as Human papillomavirus)	CD4^+	DQB1*03:01	–
